# In patent publication US8076452B2, “Streptavidin-binding peptide” (priority 2002, dated 2011):
# Read-outs that look alike come from different tables or passages of the source.
# Tests used:
# streptavidin [1] = target: T1, streptavidin (Streptomyces avidinii, UniProt P22629); conditions: prior art; read-out: dissociation constant Kd; cited from earlier work
# streptavidin [2] = target: T1, streptavidin; test: Dissociation constant measurement, BiacoreX, NTA sensor chip (first measurements); assay type: binding; conditions: for Kd: FABP with N-terminal 15-aa peptide, C-terminal His6 on NTA chip
# Excerpt: Using standard methods for this technology, the FAB protein (fatty acid binding protein) (FABP) from bovine hearts was expressed in vitro in a cell-free protein biosynthesis by means of a coupled transcription/translation system. The expressed FAB protein had at the N terminus an additional streptavidin-binding peptide composed of 15 amino acids with different amino acid sequences as fusion partners.
# Two binding peptides contain in their amino acid sequence the HPQ motif (motif 1 and 2) described in the prior art, and two of them contain the streptavidin-binding peptide according to SEQ ID NOS: 1-6 according to the invention (motif 3 and 4). In addition, the expressed proteins were provided at the C terminus with a “His-tag” consisting of 6 histidines. The proteins were purified by means of affinity chromatography via Ni2+IDA-agarose using standard methods. It can be seen that with equal length, binding peptides of a sequence according to the invention have a substantially lower dissociation constant than a binding peptide with HPQ motif.
# The measurements of the dissociation constant were performed with a BiacoreX system and the sensor chip NTA of the company Biacore. The proteins generated during the expression described in Example 1 were investigated, i.e. FAB proteins, which had at the N terminus a peptide consisting of 15 amino acids as fusion partners and at the C terminus 6 histidines, which were needed for the immobilization on the sensor chip. The binding affinity of the proteins generated during the expression to streptavidin described in Example 1 was measured in the Biacore device according to manufacturer's instructions. The protein to be investigated is on the sensor chip, and a streptavidin solution having a defined concentration is sprayed in. The interaction (binding) between the two molecules is measured by the device and quantified as so-called resonance units (RU). For the measurement, the buffers specified by the manufacturer were used.
# streptavidin [3] = target: T1, streptavidin; test: Binding constants by surface plasmon resonance, BIAcore NTA chip, optimized measuring method; conditions: peptide N-terminal of FABP, C-terminal Gly2-His8, 1,100 RU immobilized
# Excerpt: The information supplied by the substitution analysis was verified by determining the binding constants of different peptides by surface plasmon resonance spectroscopy using a BIAcore device. The measurements were made with the NTA sensor chip of the company BIAcore and by means of the fatty acid-binding protein from bovine hearts (FABP). The FABP served for the immobilization and presentation of the peptide. Further, it was intended to thus simulate the conditions occurring in an affinity chromatography, since the peptide is to be used in the future as an affinity peptide for the purification of proteins. In contrast to the first measurements, where the peptides to be verified replaced the four N terminal amino acids of the FABP, the arrangement of the peptides was this time also N terminal, but they were not part of the FABP. The His-tag necessary for the immobilization was also modified. It was located same as for the first measurements at the C terminus of the FABP, was however extended from six to eight histidines and further spaced by a linker consisting of two glycines from the FABP. Thereby, the immobilization of the ligands could distinctly be improved, and thus the drift of the base line resulting from the washing-off of the ligand could be minimized. For every measurement, an identical amount of the respective FABPs was immobilized, what corresponded to a rise of the base line by 1,100 resonance units (RU). As a reference was used the FABP with the His-tag, but without N terminal binding peptide.
# The binding constants obtained with the optimized measuring method were the following: […]
# streptavidin [4] = target: T1, streptavidin; test: Substitution analysis by spot synthesis on cellulose membrane, peroxidase-labeled streptavidin, luminescence; assay type: binding; conditions: peptide spots on cellulose membrane
# Excerpt: The binding peptide (FAx 3) with the sequence DVEAWLDERVPLVET [SEQ ID NO: 16] was subjected to a substitution analysis, and it was intended thereby to identify a possible minimum motif (=shortened peptide) and examine the effect of individual amino acid exchanges on the binding specificity. In a substitution analysis, peptides are synthesized by means of spot methods (Frank, R. 1992) on a cellulose membrane serving as a solid phase. Every position of the peptide comprising 15 amino acids was systematically replaced by the other 19 L amino acids.
# The substitution analysis was incubated with a peroxidase-labeled streptavidin and developed with a luminescence substrate. Thereby it was possible to find out, how far the peptide can be shortened and which amino acids are “conserved” and thus not or only very poorly exchangeable. […] The substitution analysis also indicated positions, where the exchange of the original amino acid by another one could result in an improvement of the streptavidin binding.
# streptavidin-Sepharose = streptavidin-Sepharose (Streptomyces avidinii, UniProt P22629); test: Purification of the FABP fusion protein via streptavidin-Sepharose affinity column
# Excerpt: (§1) Using standard methods, the FAB protein having at the N terminus an additional peptide consisting of 15 amino acids with the amino acid sequence DVEAWLDERVPLVET [SEQ ID NO: 16] (motif 3) as fusion partners, is expressed in vitro in a cell-free protein biosynthesis by means of a coupled transcription/translation system. For purification of the overexpressed defined protein, the streptavidin was coupled to a solid phase. As a solid phase was used a Sepharose. The expressed FAB protein was then purified using standard methods via a column comprising streptavidin-Sepharose or StrepTactin-Sepharose. For the purification the following buffers were used: washing buffer (100 mM Tris-HCl (pH 8.0), 150 mM NaCl, 1 mM EDTA).
# (§2) For the elution of streptavidin, the washing buffer contained 2 mM biotin, and for the elution of StrepTactin, the washing buffer contained 2.5 mM desthiobiotin.
# (§3) The percentage distribution of the used defined protein on the various fractions of the affinity chromatography can be taken from Table 3. In Table 3, D represents the application of sample/passage, W washing fraction, and E elution fraction.
# StrepTactin-Sepharose = StrepTactin-Sepharose (Streptomyces avidinii, UniProt P22629, E68V/S69T/V71R); test: Purification of the FABP fusion protein via StrepTactin-Sepharose affinity column
# Excerpt: as §1, §2, §3
# T1 sequence (P22629 25-183, species assumed): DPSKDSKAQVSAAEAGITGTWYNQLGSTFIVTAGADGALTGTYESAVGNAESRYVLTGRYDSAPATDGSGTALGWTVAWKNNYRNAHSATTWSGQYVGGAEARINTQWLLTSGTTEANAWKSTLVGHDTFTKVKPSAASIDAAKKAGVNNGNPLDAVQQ
# streptavidin-Sepharose, sequence (P22629 25-183): as the sequence (P22629 25-183, species assumed) above
# StrepTactin-Sepharose, sequence (P22629 38-163 E68V/S69T/V71R): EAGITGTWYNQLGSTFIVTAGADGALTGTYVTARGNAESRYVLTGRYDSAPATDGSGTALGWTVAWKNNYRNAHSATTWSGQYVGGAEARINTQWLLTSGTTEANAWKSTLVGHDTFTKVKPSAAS
substance,measurement,setting,value
AWRHPQFGG [Strep-tag I],Kd,streptavidin [1],10000 to 37000 nM
"DLYDIDRNWVGHPQG [motif 1, D L Y D I D R N W V G H P Q G, reference compound]",Kd,streptavidin [2],8000 nM
same,resonance units (RU),streptavidin [2]; Streptavidin conc. 500 nM,62 RU
same,resonance units (RU),streptavidin [2]; Streptavidin conc. 1 μM,123 RU
same,resonance units (RU),streptavidin [2]; Streptavidin conc. 2 μM,233 RU
same,resonance units (RU),streptavidin [2]; Streptavidin conc. 4 μM,407 RU
same,resonance units (RU),streptavidin [2]; Streptavidin conc. 8 μM,621 RU
same,resonance units (RU),streptavidin [2]; Streptavidin conc. 16 μM,779 RU
same,resonance units (RU),streptavidin [2]; Streptavidin conc. 32 μM,955 RU
"DNYDADLAWDTHPQD [motif 2, D N Y D A D L A W D T H P Q D, reference compound]",Kd,streptavidin [2],70000 nM
same,resonance units (RU),streptavidin [2]; Streptavidin conc. 3 μM,64 RU
same,resonance units (RU),streptavidin [2]; Streptavidin conc. 6 μM,98 RU
same,resonance units (RU),streptavidin [2]; Streptavidin conc. 15 μM,201 RU
same,resonance units (RU),streptavidin [2]; Streptavidin conc. 30 μM,337 RU
same,resonance units (RU),streptavidin [2]; Streptavidin conc. 60 μM,536 RU
DVDAWLDER,Kd,streptavidin [3]; read-out: Kd,940 ± 140 nM
DVEAWFDER,Kd,streptavidin [3],not measurable
"DVEAWIADPAVHFTT [motif 4, D V E A W I A D P A V H F T T]",Kd,streptavidin [2],200 nM
same,resonance units (RU),streptavidin [2]; Streptavidin conc. 30 nM,68 RU
same,resonance units (RU),streptavidin [2]; Streptavidin conc. 60 nM,171 RU
same,resonance units (RU),streptavidin [2]; Streptavidin conc. 125 nM,280 RU
same,resonance units (RU),streptavidin [2]; Streptavidin conc. 250 nM,384 RU
same,resonance units (RU),streptavidin [2]; Streptavidin conc. 500 nM,478 RU
same,resonance units (RU),streptavidin [2]; Streptavidin conc. 1 μM,560 RU
same,resonance units (RU),streptavidin [2]; Streptavidin conc. 2 μM,644 RU
DVEAWL,streptavidin binding,streptavidin [4],sufficient streptavidin binding
DVEAWLDAR,Kd,streptavidin [3]; read-out: Kd,160 ± 30 nM
DVEAWLDER,Kd,streptavidin [3]; read-out: Kd,240 ± 40 nM
same,streptavidin binding,streptavidin [4],clearly better streptavidin binding
"DVEAWLDERVPLVET [motif 3, D V E A W L D E R V P L V E T]",Kd,streptavidin [2],84 nM
same,resonance units (RU),streptavidin [2]; Streptavidin conc. 15 nM,98 RU
same,resonance units (RU),streptavidin [2]; Streptavidin conc. 30 nM,242 RU
same,resonance units (RU),streptavidin [2]; Streptavidin conc. 60 nM,461 RU
same,resonance units (RU),streptavidin [2]; Streptavidin conc. 125 nM,613 RU
same,resonance units (RU),streptavidin [2]; Streptavidin conc. 250 nM,704 RU
same,resonance units (RU),streptavidin [2]; Streptavidin conc. 500 nM,786 RU
same,resonance units (RU),streptavidin [2]; Streptavidin conc. 2 μM,946 RU
same,resonance units (RU),streptavidin [2]; Streptavidin conc. 4 μM,983 RU
same,Kd,streptavidin [3]; read-out: Kd,3.6 ± 0.6 nM
same,"percentage distribution of the protein, fraction D",streptavidin-Sepharose; application of sample/passage,3.5%
same,"percentage distribution of the protein, fraction E1","streptavidin-Sepharose; elution fraction 1, 2 mM biotin",0.4%
same,"percentage distribution of the protein, fraction E2","streptavidin-Sepharose; elution fraction 2, 2 mM biotin",76.9%
same,"percentage distribution of the protein, fraction E3","streptavidin-Sepharose; elution fraction 3, 2 mM biotin",0.7%
same,applied protein recovered for the eluate,streptavidin-Sepharose; streptavidin-Sepharose,78%
same,applied protein recovered from the column,streptavidin-Sepharose; streptavidin-Sepharose,90%
same,"percentage distribution of the protein, Tot.",streptavidin-Sepharose; sum of all fractions,89.6%
same,"percentage distribution of the protein, fraction W1",streptavidin-Sepharose; washing fraction 1,6.8%
same,"percentage distribution of the protein, fraction W2",streptavidin-Sepharose; washing fraction 2,1.0%
same,"percentage distribution of the protein, fraction W3",streptavidin-Sepharose; washing fraction 3,0.3%
same,applied protein recovered for the eluate,StrepTactin-Sepharose; StrepTactin-Sepharose,71%
same,applied protein recovered from the column,StrepTactin-Sepharose; StrepTactin-Sepharose,84%
same,"percentage distribution of the protein, fraction D",StrepTactin-Sepharose; application of sample/passage,3.0%
same,"percentage distribution of the protein, fraction E1","StrepTactin-Sepharose; elution fraction 1, 2.5 mM desthiobiotin",0.9%
same,"percentage distribution of the protein, fraction E2","StrepTactin-Sepharose; elution fraction 2, 2.5 mM desthiobiotin",45.9%
same,"percentage distribution of the protein, fraction E3","StrepTactin-Sepharose; elution fraction 3, 2.5 mM desthiobiotin",23.2%
same,"percentage distribution of the protein, fraction E4","StrepTactin-Sepharose; elution fraction 4, 2.5 mM desthiobiotin",1.0%
same,"percentage distribution of the protein, fraction E5","StrepTactin-Sepharose; elution fraction 5, 2.5 mM desthiobiotin",0.3%
same,"percentage distribution of the protein, Tot.",StrepTactin-Sepharose; sum of all fractions,84.4%
same,"percentage distribution of the protein, fraction W1",StrepTactin-Sepharose; washing fraction 1,7.4%
same,"percentage distribution of the protein, fraction W2",StrepTactin-Sepharose; washing fraction 2,1.8%
same,"percentage distribution of the protein, fraction W3",StrepTactin-Sepharose; washing fraction 3,0.9%
DVEAWLGAR,Kd,streptavidin [3]; read-out: Kd,17 ± 4 nM
DVEAWLGARVPLVET,Kd,streptavidin [3]; read-out: Kd,4.1 ± 0.6 nM
DVEAWLGER,Kd,streptavidin [3]; read-out: Kd,17 ± 4 nM
DVEAWLGERVPLVET,Kd,streptavidin [3]; read-out: Kd,4.2 ± 0.7 nM
DVEAWRDER,Kd,streptavidin [3],not measurable
DVGAWLDER,Kd,streptavidin [3]; read-out: Kd,570 ± 90 nM
MDEKTTGWRGGIIVVEGLAGELEQLRARLEHHPQGQREP [SBP-tag],Kd,streptavidin [1],2.5 nM
WSHPQFEK [Strep-tag II],Kd,streptavidin [1],18000 to 72000 nM
